Results from patent publication US20210254056A1, “IDENTIFICATION AND TARGETED MODULATION OF GENE SIGNALING NETWORKS” (CAMP4 THERAPEUTICS CORPORATION, priority 2017, published 2021).

Test system: hepatocytes
Test: RNA-seq of hepatocytes treated with Phase III failure compounds
Protocol: RNA-seq was performed to determine the effects of the compounds on hepatocytes.
Significance was determined by the criteria of FPKM≥0.5, a log 2(fold-change)≥1, and a […].

## C[C@H](Oc1ccc(S(C)(=O)=O)cc1C(=O)N1CCN(c2ncc(C(F)(F)F)cc2F)CC1)C(F)(F)F [Bitopertin]
RNA-seq of Table 36, FPKM≥0.5, log 2(fold-change)≥1, q-value≤0.05
  significant changes in gene expression: not observed to cause any significant changes in gene expression
RNA-seq, p≤0.05, hepatocytes
  significant modulation of expression of any of the genes analyzed: not observed to significantly modulate expression
